Entries after “also recorded” stand apart in the source; their conditions may differ.
Experiments:
Human recombinant AChE = target: T1, Human recombinant AChE (Homo sapiens, UniProt P22303); assay: In-vitro human recombinant AChE inhibition assay, Amplex Red kit method; type: biochemical; settings: Table 11
T1 construct: purchased Sigma Aldrich
Procedure: In-vitro human recombinant AChE inhibition assay by Amplex Red kit method: The anticholinesterase activity of experimental drugs was measured by using Amplex red assay kit (Molecular Probes, Inc., USA). Fluorescence assay used for the screen of Human AChE activity in the presence of each experimental drug from a commercially available kit (Amplex Red, Invitrogen, Thermo Fisher Scientific, Waltham, Mass.). Acetylcholine, the product of AChE catalysis, was converted to a fluorescent called resorufin by the addition of a series of kit enzymes, including Choline oxidase (CO), horseradish peroxidase (HRP), and the fluorogenic substrate Amplex Red. As the fluorescent molecule resorufin is dependent on acetylcholine production and acetylcholine production is the product of AChE catalysis, the rate of change in fluorescence is a measurement of AChE activity. […] The following procedure is designed for use with a fluorescence multi-well plate scanner. […]
Positive control wells, representing 100% Human recombinant AChE activity (0% human-AChE inhibition), contained, Acetylcholine, and Amplex Red solution. […] Fluorescence measurements were taken at baseline (immediately after substrate was added to each well), and after a 60-minute incubation at 37° C. The fluorescence micro-plate reader was measured using excitation in the range of 530-560 nm and emission detected at 590 nm. […]

[1] = tested on: cortical brain mitochondria; assay: Mitochondrial respiration and respiratory control ratio (RCR) of isolated brain cortex mitochondria after 21 days treatment; settings: for Respiratory control ratio (RCR): old mice (18 to 20 month), 50 mg/kg p.o.; for Respiratory control ratio (RCR) / Mitochondrial respiration in all states: 21 days; for State II respiratory rate / Mitochondrial respiration in all states: 50 mg/kg; for Mitochondrial respiration in all states: young and old mice, vs respective normal control; for Respiratory rate at state V (complex I): FCCP
Procedure: Briefly the mitochondria were added to the chamber and respiratory states were evaluated by suitable substrates and inhibitors. Purified mitochondrial protein was suspended in respiration buffer in a final volume of 250 μL. State II respiration was initiated by addition of Pyruvate/Malate (P/M), with basal rate of respiration. […] State IV was measured by addition of oligomycin. The respiration returns to basal rate since the ATP synthase is shut down and no electrons are allowed to return to the matrix. The electron transport chain (ETC) continues only to maintain mitochondrial membrane potential due to loss of protons back into the matrix. State V was measured by addition of FCCP. This represents the maximum rate of respiration, causing uncoupling of the ETC to ATP synthesis, and allows protons to rush back into the matrix. Rotenone was then added to shut down complex I-driven respiration. State V (succinate) was determined by addition of succinate. This is the maximum rate of respiration via complex II, since FCCP is present in the system.

[2] = target: T2, AchE from Electrophorus electricus (electric eel) (Electrophorus electricus, UniProt O42275); assay: In-vitro AChE inhibition assay, Ellman method; type: biochemical
T2 construct: purchased Sigma Aldrich
From the text: AchE from Electrophorus electricus (electric eel) CAS: 9000-81-1 was procured from Sigma Aldrich (St. Louis, Mo., USA). 5,5′-dithiobis (2-nitrobenzoic acid) (DTNB-Ellman's reagent) and acetylcholine iodide, (AChI) were procured from local suppliers (HiMedia, Pvt. Ltd., New Delhi, India). All other chemicals and reagents were available commercially from local suppliers (Merck Pvt. Ltd., New Delhi and HiMedia Laboratories Pvt Ltd., New Delhi, India) and were of analytical grade.
The procedure described by Ellman et al. was used after some modification for AChE inhibition assay. Acetylthiocholine iodide (ATCI), 5,5′-dithiobis (2-nitrobenzoic acid) (DTNB-Ellman's reagent) were purchased from Himedia. Donepezil was used as positive control. Tris-HCl buffer (pH 8) was used to perform the in-vitro assay. […] 50 μL of AChE (0.22 U mL^−1) and 10 μL of test or standard compounds were incubated in 96 well plate for 30 min. at room temperature (See, Table 3).
Further, substrate i.e. ATCI (15 mM, 30 μL) was added and it was incubated for additional 30 min. Finally 160 μL (1.5 mM) of DTNB was added and the absorbance was recorded at 415 nm using Epoch microplate reader (BioTek). The IC50 value was calculated using absorbance obtained from the test and standard compounds. The assay was performed in triplicate and in three independent runs.
Percentage inhibition=(Control−Test)/Control×100 Equation (1)
50 μL of AChE (0.22 U mL^−1) and 10 μL of test or standard compounds were incubated in 96 well plate for 30 min. at room temperature.
Further, substrate i.e. ATCI (15 mM, 30 μL) was added and it was incubated for additional 30 min. Finally 160 μL (1.5 mM) of DTNB was added and the absorbance was recorded at 415 nm using Epoch microplate reader (BioTek). The IC50 value was calculated using absorbance obtained from the test and standard compounds. The assay was performed in triplicate (see Equation 1).

[3] = tested on: scopolamine induced dementia in rats; assay: Y-maze test, scopolamine induced dementia in rats (Study 2); type: in vivo, Charles Foster male albino rats; settings: 50 mg dose orally once daily; for Coping behavior to novel environment (% time in novel arm), trial-2 / Curiosity behavior (total number of entries), trial-1 and trial-2: scopolamine treated rats; for % known and novel arm entries (spatial recognition memory): vs scopolamine treated rats
Procedure: 2.2. Animal subjects. Inbred Charles Foster male albino rats (130-180 g) were obtained from the Central Animal House, Institute of Medical Sciences (IMS), Banaras Hindu University (BHU), Varanasi, Uttar Pradesh, India. These were certified to be pathogen free and were randomly distributed into different experimental groups. The rats were kept in the departmental animal house at an ambient temperature of 25±1° C. and 45-55% RH, with a 12-h light/dark cycle (lights on 7:00-19:00 h). The animals had free access to standard pellet chow and tap water ad libitum. Experiments were conducted between 9:00 and 14:00 h. The behavioral testing was done during the light phase. Animals were housed in groups and acclimatized for at least one week before using them for experiments. Animals were transported in cage covered by dark cloth to the experimental room. The experimental procedures were in compliance with National Institutes of Health Guide for Care and Use of Laboratory Animals.
The rats were pretreated orally for seven days through an orogastric tube with experimental drugs (10, 25 and 50 mg/kg once daily) suspended in 0.3% carboxymethyl cellulose (CMC). The treatment was continued until the end of the experiment procedures (Singh, G. K., Garabadu, D., Muruganadam, A. V., Joshi, V. K., Krishnamurthy, S., “Antidepressant activity of Asparagus racemosus in animal models of depression,” Pharmacol. Biochem. Behav. (2009) 91(3):283-90). Scopolamine was dissolved in water for injection and administered on day 7 after one hour of drug treatment administration. Donepezil (5 mg/kg; i.p.)
was used as standard drug. On day 8 the behavioral experiment was performed. The animals were sacrificed and hippocampus was micro-dissected using the coordinates of the rat brain atlas. All control group animals were treated with the 0.3 ml of vehicle (0.3% CMC suspension) equal to the volume of experimental drugs (Ohj a, R., et al., “Asparagus recemosus enhances memory and protects against amnesia in rodent models,” Brain Cogn. (2010) October; 74(1): 1-9).
Spatial recognition memory, general exploratory behavior, and anxiety-like behavior were assessed by the Y-maze test. Y-maze consists of three similar arms of dimension 50 cm long, 16 cm wide and 32 cm high. In the first trial, the novel arm was blocked and the animal was allowed to move for 15 min in other two arms. In the second trial, the novel arm was opened and the animal was allowed to move for 5 min in all three arms after 4 h of the first trial. The total number of entries in all arms (for 5 min of trial-1 and trial-2) is indicative of general exploration attitude (curiosity). The % entries in known and novel arms for the 5 min period of trial 2 were considered as a measure of spatial recognition memory. Coping strategy to the novel environment was estimated by the percentage of the ratio of time spent in the novel arm to time spent in all arms and in the center of the apparatus during trial 2. The decrease in the coping behavior to the novel environment was considered as an increase in anxiety-like behavior (Krishnamurthy, S., et al., “Risperidone ameliorates post-traumatic stress disorder-like symptoms in modified stress re-stress model,” Neuropharmacology (2013) 75:62-77).

[4] = Table 2, B:A ratios from mg/ml solutions
[5] = Table 5, Shilajit:B:A combinations from mg/ml solutions

T2 sequence (O42275 24-633): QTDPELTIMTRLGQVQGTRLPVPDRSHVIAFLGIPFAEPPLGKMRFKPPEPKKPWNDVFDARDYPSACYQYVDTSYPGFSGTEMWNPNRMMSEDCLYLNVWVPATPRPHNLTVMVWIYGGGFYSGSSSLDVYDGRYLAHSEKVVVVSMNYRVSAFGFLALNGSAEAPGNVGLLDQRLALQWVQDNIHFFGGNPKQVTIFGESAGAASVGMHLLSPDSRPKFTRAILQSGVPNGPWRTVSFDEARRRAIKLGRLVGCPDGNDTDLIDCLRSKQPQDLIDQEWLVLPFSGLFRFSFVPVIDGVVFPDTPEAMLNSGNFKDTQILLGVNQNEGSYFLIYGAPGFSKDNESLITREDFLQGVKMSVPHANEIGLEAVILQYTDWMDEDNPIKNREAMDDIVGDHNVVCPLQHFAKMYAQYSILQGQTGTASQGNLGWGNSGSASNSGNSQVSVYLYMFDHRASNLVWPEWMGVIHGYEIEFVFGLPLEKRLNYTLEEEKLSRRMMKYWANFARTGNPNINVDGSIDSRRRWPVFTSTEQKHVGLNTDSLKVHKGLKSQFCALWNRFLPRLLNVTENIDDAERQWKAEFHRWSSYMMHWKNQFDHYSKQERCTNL
T1 sequence (P22303 32-614): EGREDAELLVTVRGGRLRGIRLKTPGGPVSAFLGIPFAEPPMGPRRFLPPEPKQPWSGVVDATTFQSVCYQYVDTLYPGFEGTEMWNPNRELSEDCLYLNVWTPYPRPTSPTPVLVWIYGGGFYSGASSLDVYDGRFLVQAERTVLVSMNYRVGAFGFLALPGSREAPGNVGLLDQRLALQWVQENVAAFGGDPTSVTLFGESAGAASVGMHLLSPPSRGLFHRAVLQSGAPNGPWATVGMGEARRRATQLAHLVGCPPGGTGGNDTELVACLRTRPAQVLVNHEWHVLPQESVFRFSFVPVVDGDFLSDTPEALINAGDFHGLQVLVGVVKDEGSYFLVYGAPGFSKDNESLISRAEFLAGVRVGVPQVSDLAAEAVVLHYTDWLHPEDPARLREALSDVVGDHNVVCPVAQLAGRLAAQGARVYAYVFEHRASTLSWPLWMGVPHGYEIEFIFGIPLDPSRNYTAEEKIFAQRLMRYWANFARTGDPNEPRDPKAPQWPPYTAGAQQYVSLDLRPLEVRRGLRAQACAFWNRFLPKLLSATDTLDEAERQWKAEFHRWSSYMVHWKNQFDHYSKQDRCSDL

Row | SMILES | IC50 (Human recombinant AChE) [µg/mL] | Respiratory control ratio (RCR) ([1]; vs old control) | State II respiratory rate ([1]; old mice, vs old control) | Mitochondrial respiration in all states [1] | State II respiratory rate ([1]; young mice, vs young control) | Respiratory rate at state V (complex I) ([1]; young mice) | IC50 [2, 4] [µg/mL] | IC50 [2, 5] [µg/mL] | Coping behavior to novel environment (% time in novel arm), trial-2 [3] | Curiosity behavior (total number of entries), trial-1 and trial-2 [3] | % known and novel arm entries (spatial recognition memory) [3]
1 | O=c1oc2cc(O)ccc2c2ccccc12 [Urolithin B, 3-hydroxy-dibenzo-alpha-pyrone] | 412.00 ± 28.28 | significantly increased the RCR | found to be increased | significantly increased mitochondrial respiration | significant increases in respiratory rate | significantly found to be increased; also recorded: less effect | 0.1430 ± 0.0057 | 0.1430 ± 0.0057 | attenuated the scopolamine-induced decrease in coping strategy | attenuated the scopolamine induced decrease in curiosity behavior | dose dependently reversed the % known and novel arm entries
2 | O=c1oc2cc(O)ccc2c2ccc(O)cc12 [Urolithin A, 3,8-dihydroxy-dibenzo-alpha-pyrone] | 528.00 ± 70.71 | significantly increased the RCR | found to be increased | significantly increased mitochondrial respiration | significant increases in respiratory rate | significantly found to be increased | 0.1793 ± 0.0092 | 0.1793 ± 0.0092 | attenuated the scopolamine-induced decrease in coping strategy | attenuated the scopolamine induced decrease in curiosity behavior | dose dependently reversed the % known and novel arm entries

Reference: patent publication US20200246308A1, “SYNERGISTIC COMBINATIONS OF UROLITHINS A AND B FOR IMPROVING COGNITIVE CAPACITY OR COGNITIVE FUNCTION” (Natreon, Inc., priority 2018, published 2020)
